Data taken from BindingDB's records for doi:10.7270/Q28051GP (Universiti Teknologi Mara, 2017).

Biological target: T1, Beta-glucuronidase (Homo sapiens, UniProt P08236)
T1 sequence (P08236 whole entry): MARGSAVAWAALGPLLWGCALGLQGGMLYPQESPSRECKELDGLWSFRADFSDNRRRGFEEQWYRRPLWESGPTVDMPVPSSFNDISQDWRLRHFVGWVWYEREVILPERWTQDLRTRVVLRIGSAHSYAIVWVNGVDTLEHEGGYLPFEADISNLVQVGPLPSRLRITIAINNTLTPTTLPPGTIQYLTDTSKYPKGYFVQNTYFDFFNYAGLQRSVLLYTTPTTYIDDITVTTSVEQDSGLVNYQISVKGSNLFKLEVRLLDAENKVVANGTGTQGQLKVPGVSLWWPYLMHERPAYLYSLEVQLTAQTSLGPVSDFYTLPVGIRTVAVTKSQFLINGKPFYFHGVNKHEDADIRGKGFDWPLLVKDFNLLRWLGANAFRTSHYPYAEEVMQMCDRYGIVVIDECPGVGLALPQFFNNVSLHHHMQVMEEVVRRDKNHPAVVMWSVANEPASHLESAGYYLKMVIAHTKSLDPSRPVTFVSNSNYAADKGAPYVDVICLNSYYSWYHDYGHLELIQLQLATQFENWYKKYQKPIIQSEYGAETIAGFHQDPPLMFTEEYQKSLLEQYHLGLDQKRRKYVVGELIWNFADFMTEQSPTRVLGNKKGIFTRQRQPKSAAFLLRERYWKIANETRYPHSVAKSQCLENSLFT
Test: β-Glucuronidase Assay
Method: β-glucuronidase activity was determined in accordance to method used by Taha et al. [Taha et al., Bioorg. […] 250 μL was the volume of total reaction. Reaction mixture containing 5 μL of test compound solution, 185 μL of 0.1 M acetate buffer and 10 μL of enzyme solution were incubated for 30 min at 37 °C. […] To avoid precipitation, compound concentration was decreased and the volume of reaction was increased (200 μL). Precipitation probability was less thus addition of detergents was not needed.

| SMILES | IC50 |
| --- | --- |
| O=C(N/N=C/c1ccccn1)c1cc2cc(Cl)ccc2[nH]1 [(E)-5-chloro-N'-(pyridin-2-ylmethylene)-1H-indole-2-carbohydrazide (17)] | 22.8 µM |
| COc1ccc(/C=N/NC(=O)c2cc3cc(Cl)ccc3[nH]2)cc1 [(E)-5-chloro-N'-(4-methoxybenzylidene)-1H-indole-2-carbohydrazide (13)] | 53.6 µM |
| O=C(N/N=C/c1ccccc1O)c1cc2cc(Cl)ccc2[nH]1 [(E)-5-chloro-N'-(2-hydroxybenzylidene)-1H-indole-2-carbohydrazide (26)] | 25.2 µM |
| COC(=O)c1ccc(/C=N/NC(=O)c2cc3cc(Cl)ccc3[nH]2)cc1 [Methyl (E)-4-((2-(5-chloro-1H-indole-2-carbonyl)hydrazono)methyl)benzoate (15)] | 22.6 µM |
| O=C(N/N=C/c1cccc(O)c1O)c1cc2cc(Cl)ccc2[nH]1 [(E)-5-chloro-N'-(2,3-dihydroxybenzylidene)-1H-indole-2-carbohydrazide (19)] | 13.4 µM |
| O=C(N/N=C/c1ccc(F)c(Br)c1)c1cc2cc(Cl)ccc2[nH]1 [(E)-N'-(3-bromo-4-fluorobenzylidene)-5-chloro-1H-indole-2-carbohydrazide (33)] | 14.4 µM |

Further compounds by falling IC50, results first:

| IC50 | SMILES |
| --- | --- |
| 44.5 µM | O=C(N/N=C/c1cccnc1)c1cc2cc(Cl)ccc2[nH]1 [(E)-5-chloro-N'-(pyridin-3-ylmethylene)-1H-indole-2-carbohydrazide (18)] |
| 43.5 µM | Cc1ccc(/C=N/NC(=O)c2cc3cc(Cl)ccc3[nH]2)cc1 [(E)-5-chloro-N'-(4-methylbenzylidene)-1H-indole-2-carbohydrazide (1)] |
| 42.4 µM | O=C(N/N=C/c1ccncc1)c1cc2cc(Cl)ccc2[nH]1 [(E)-5-chloro-N'-(pyridin-4-ylmethylene)-1H-indole-2-carbohydrazide (27)] |
| 37.2 µM | O=C(N/N=C/c1ccc(Cl)cc1)c1cc2cc(Cl)ccc2[nH]1 [(E)-N'-(4-chlorobenzylidene)-5-chloro-1H-indole-2-carbohydrazide (34)] |
| 24.3 µM | COc1ccc(O)c(/C=N/NC(=O)c2cc3cc(Cl)ccc3[nH]2)c1 [(E)-5-chloro-N'-(2-hydroxy-5-methoxybenzylidene)-1H-indole-2-carbohydrazide (6)] |
| 22.5 µM | COc1ccc(/C=N/NC(=O)c2cc3cc(Cl)ccc3[nH]2)cc1O [(E)-5-chloro-N'-(3-hydroxy-4-methoxybenzylidene)-1H-indole-2-carbohydrazide (5)] |
| 21.5 µM | COc1ccc(/C=N/NC(=O)c2cc3cc(Cl)ccc3[nH]2)c(O)c1 [(E)-5-chloro-N'-(2-hydroxy-4-methoxybenzylidene)-1H-indole-2-carbohydrazide (16)] |
| 14.6 µM | O=C(N/N=C/c1ccc(O)c(O)c1)c1cc2cc(Cl)ccc2[nH]1 [(E)-5-chloro-N'-(3,4-dihydroxybenzylidene)-1H-indole-2-carbohydrazide (24)] |
| 7.5 µM | O=C(N/N=C/c1cc(O)ccc1O)c1cc2cc(Cl)ccc2[nH]1 [(E)-5-chloro-N'-(2,5-dihydroxybenzylidene)-1H-indole-2-carbohydrazide (23)] |
